From patent publication US20180369195A1, “COMBINATION THERAPY FOR TREATMENT OF MELANOMA” (The Regents of the University of California, priority 2015, published 2018)

Columns and labels:
Assay type in all cases: cell-based, human
[1] = system: β-catenin; test: Western blot of β-catenin; settings: G361, SK-MEL-2 cells pre-treated 3 hours with GSK3β inhibitor, then 20 μM 1-benzyl I3C 24 hours
Text: The western blots employed the following primary antibodies: mouse anti-MITF-M (Thermo-scientific), mouse anti-HSP 90 (BD Biosciences), mouse anti-CDK2, rabbit anti-CDK4, rabbit anti-CDK-6, mouse anti-rabbit BRAF, goat anti-LEF-1, rabbit anti-AXIN, mouse anti-BCL2, (Santa Cruz), rabbit anti-P21, mouse anti-Cyclin D1, rabbit anti-MEK-p, rabbit anti-MEK1/2, rabbit anti-GSK3β rabbit anti-LRP6, rabbit anti-LRP6-phospho (Cell signaling), mouse anti-β-catenin (Invitrogen).

[2] = system: phosphorylated Erk/MAPK; test: Western blot of phosphorylated Erk/MAPK; settings: G-361 cells, 48 hours; 200 μM I3C, 10 μM Vemurafenib or 10 μM U0126
Procedure: (§2) Western Blot analyses of samples electrophoretically fractionated on 12% acrylamide gels were carried out as previously described (Wagle et al., J. Clin. Oncol. 2011. 29(22):3085-3096; Nguyen et al., Chem. Biol. Interact. 2010. 186(3):255-266). […] The western blots employed the following primary antibodies: mouse anti-MITF-M (Thermo-scientific), mouse anti-HSP 90 (BD Biosciences), mouse anti-CDK2, rabbit anti-CDK4, rabbit anti-CDK-6, mouse anti-rabbit BRAF, goat anti-LEF-1, rabbit anti-AXIN, mouse anti-BCL2, (Santa Cruz), rabbit anti-P21, mouse anti-Cyclin D1, rabbit anti-MEK-p, rabbit anti-MEK1/2, rabbit anti-GSK3β rabbit anti-LRP6, rabbit anti-LRP6-phospho (Cell signaling), mouse anti-β-catenin (Invitrogen).

[3] = system: CDK4; test: Western blot of CDK4; settings: G-361 cells, 48 hours; 200 μM I3C, 10 μM Vemurafenib or 10 μM U0126
Procedure: (§1) Western Blot analyses of samples electrophoretically fractionated on 12% acrylamide gels were carried out as previously described (Wagle et al., J. Clin. Oncol. 2011. 29(22):3085-3096; Nguyen et al., Chem. Biol. Interact. 2010. 186(3):255-266). Enhanced chemiluminescence (ECL) Lightening reagents were used to visualize the primary antibody bound protein bands in nitrocellulose membranes and the results captured on ECL Autoradiography Film (GE Healthcare, Piscataway, N.J.). The western blots employed the following primary antibodies: mouse anti-MITF-M (Thermo-scientific), mouse anti-HSP 90 (BD Biosciences), mouse anti-CDK2, rabbit anti-CDK4, rabbit anti-CDK-6, mouse anti-rabbit BRAF, goat anti-LEF-1, rabbit anti-AXIN, mouse anti-BCL2, (Santa Cruz), rabbit anti-P21, mouse anti-Cyclin D1, rabbit anti-MEK-p, rabbit anti-MEK1/2, rabbit anti-GSK3β rabbit anti-LRP6, rabbit anti-LRP6-phospho (Cell signaling), mouse anti-β-catenin (Invitrogen).

[4] = system: MITF-M; test: MITF-M protein levels in cultured melanoma cells (western blot, immunofluorescence); settings: for MITF-M protein levels (western blot): G-361 cells, 48 hours, 200 μM I3C, 10 μM Vemurafenib or 10 μM U0126
Procedure: as §1

[5] = system: SK-MEL-2 cells; test: CCK-8 proliferation assay, SK-MEL-2; settings: 48 hours
Procedure: […] Cells were treated with 20 μM 1-benzyl I3C every 24 hours for 72 hours and harvested at 24, 48 and 72 hours for western blot and flow cytometric analysis. Cells were treated with 20 μM LiCl or 10 μM BIO for 48 hours before harvesting them for western blots.
Subsequently inhibition of proliferation was assessed using Cell counting Kit-8 (Dojindo) as per the protocol in the user's manual. Briefly, 50 μl of the CCK-8 solution was added to each well along with 450 μl media and incubated for 2-3 hours. The absorbance was read at 450 nm and % inhibition was calculated for each condition standardizing DMSO to zero using the formula: [(100−Value of treatment/Value of DMSO treated control)×100]

[6] = system: phosphorylated MEK; test: Western blot of phosphorylated MEK; settings: G361 and DM738 cells, 10 μM Vemurafenib, 24 hours
Procedure: as §2

Molecule | rescue of 1-benzyl I3C induced downregulation of β-catenin, MITF-M, CDK2, BCl2 [1] | phosphorylated Erk/MAPK levels [2] | CDK4 protein levels [3] | MITF-M protein levels (western blot) [4] | antiproliferation in wild-type BRAF cells [5] | MEK-P levels [6] | sensitivity of MITF-M inhibition to Vemurafenib ([4]; SK-MEL-2 cells (wild-type BRAF), 10 μM Vemurafenib, 24 hours)
O=C1Nc2cc(Br)ccc2/C1=C1/Nc2ccccc2/C1=N\O [BIO, 6-bromoindirubin-3′-oxime] | significant rescue | – | – | – | – | – | –
[Cl-].[Li+] [LiCl, Lithium Chloride] | significant rescue | – | – | – | – | – | –
N#CC(=C(/N)Sc1ccccc1N)/C(C#N)=C(\N)Sc1ccccc1N [U0126, reference compound] | – | down regulated | down regulated | down regulated | – | – | –
Vemurafenib [reference compound] | – | down regulated | down regulated | down regulated | ineffective | downregulated MEK-P | not sensitive to Vemurafenib action
